One substance from patent publication US20230015532A1, “PHARMACEUTICAL COMPOSITION, FOR PREVENTING OR TREATING FIBROSIS, COMPRISING PHEOPHORBIDE COMPOUND AS ACTIVE INGREDIENT” (PAEAN BIOTECHNOLOGY INC., priority 2019, published 2023) can be followed below.

Assay [1] concerns Smad protein activity in Balb/c3T3 cells. The assay can be described thus: Smad-binding luciferase reporter assay of TGF-β signaling. In kind it is cell-based. The conditions noted are these: 0.06-5 μM together with 5 ng/ml TGF-β, 20 hours. The method, then: A vector was prepared in which a gene obtained by repeating eight times the nucleotide sequence (5′-[…]-3′ SEQ ID NO: 1) to which the Smad gene can bind was linked to a gene encoding luciferase as a reporter gene. The above vector was transfected into Balb/c3T3 cells together with a vector in which the RSV promoter gene was linked to a gene encoding beta-galactosidase. After 6 hours, the negative control group was treated with nothing, the positive control group was treated with TGF-β at a concentration of 5 ng/ml, and the experimental groups were treated with pheophorbide a obtained in Preparation Example 2 at each concentration of 0.06 μM, 0.12 μM, 0.25 μM, 0.5 μM, 1 μM, and 5 μM, together with 5 ng/ml of TGF-β.
The cells were then cultured in 5% CO2 incubator at 37° C. for 20 hours, and then luciferase analysis was performed.

Assay [2] has as its system collagen 1A, fibronectin and alpha-smooth muscle actin proteins in CCD8-Lu cells. The assay can be described thus: Anti-fibrotic activity by Western blotting (Experimental Example 3.1). In kind it is cell-based, human. The conditions noted are these: 0.06-5 μM, 6 hours after TGF-β, 18 hours. The method, then: A cell-based assay experiment was performed using Western blotting assay to analyze the anti-fibrotic activity of pheophorbide a.
CCD8-Lu cells, which are human lung-derived fibroblasts, were cultured in the DMEM medium containing 10% FBS. Then, about 2×10^5 cells were inoculated into a 6 well plate and cultured for 24 hours, and subjected to the deficient condition in the DMEM medium from which FBS was removed for about 24 hours.
24 hours later, following the treatment with TGF-β at a concentration of 5 ng/ml, fibrosis of cells was induced for 6 hours. After 6 hours, the cells were treated with pheophorbide a obtained in Preparation Example 2 and further cultured for 18 hours (FIG. 2). Then, the negative control group was treated with nothing, the positive control group was treated with TGF-β alone at a concentration of 5 ng/ml, and the experimental groups were treated with TGF-β at a concentration of […] and 6 hours later, with pheophorbide a at each concentration of 0.06 μM, 0.12 μM, 0.25 μM, 0.5 μM, 2.5 μM and 5 μM. […]
The separated supernatant was obtained and transferred to a new microtube and then the protein was quantified using a bicinchoninic acid assay (BCA assay) protein quantitative kit. […]
A general note: Immunoblotting shows a protein as a band on a membrane.

The test system of assay [3] is collagen 1A in CCD8-Lu cells. The assay can be described thus: Anti-fibrotic activity by immunocytochemistry staining (Experimental Example 3.2). In kind it is cell-based, human. The conditions noted are these: 6 hours after 5 ng/ml TGF-β. How it is done: A cell-based assay experiment was performed to analyze the anti-fibrotic activity of pheophorbide a obtained in Preparation Example 2, using immunocytochemistry staining method.
CCD8-Lu cells, which are human lung-derived fibroblasts, were cultured in the DMEM medium containing 10% FBS. About 2×10^4 cells were then inoculated into a 24 well plate and cultured for 24 hours, and subjected to the deficient condition in the DMEM medium from which FBS was removed for about 24 hours.
After 24 hours, following the treatment with TGF-β at a concentration of 5 ng/ml, fibrosis of cells was induced for 6 hours. After 6 hours, the cells were treated with pheophorbide a obtained in Preparation Example 2 and further cultured for 18 hours (FIG. 2). Then, the negative control group was treated with nothing, the positive control group was treated with TGF-β alone at a concentration of 5 ng/ml, and the experimental groups were treated with TGF-β at a concentration of 5 ng/ml and 6 hours later, with pheophorbide a at each concentration of 0.15 μM, 0.3 μM, 0.6 μM, 1.2 μM, 2.5 μM and 5 μM.
Immunohistochemistry analysis for each sample was performed as follows. […] The nuclei were stained using DAPI (4,6-diamidino-2-phenylindole) and the difference in the intensity of fluorescence was analyzed using a fluorescence microscope.

The test system of assay [4] is α-SMA, collagen 1A and fibronectin in CCD8-Lu cells. The assay can be described thus: Comparison of anti-fibrotic activity by Western blotting (Experimental Example 4.2). Type of assay: cell-based, human. The conditions noted are these: 2.5 μM and 5 μM, 6 hours after 5 ng/ml TGF-β, 18 hours. How it is done:
A cell-based analysis experiment was performed to analyze the anti-fibrotic activity of pheophorbide a in comparison with nintedanib and pirfenidone, which were previously approved as a therapeutic agent for pulmonary fibrosis, using Western blotting assay.
CCD8-Lu cells, which are human lung-derived fibroblasts, were cultured in the DMEM medium containing 10% FBS. About 2×10^5 cells were then inoculated into a 6 well plate, cultured for 24 hours, and subjected to the deficient condition in the DMEM medium from which FBS was removed for about 24 hours.
24 hours later, following the treatment with TGF-β at a concentration of 5 ng/ml, fibrosis of cells was induced for 6 hours. Then, the cells were treated with pheophorbide a obtained in Preparation Example 2 or the therapeutic agent for pulmonary fibrosis and further cultured for 18 hours. Then, the negative control group was treated with nothing, the positive control group was treated with TGF-β alone at a concentration of 5 ng/ml, and the experimental groups were treated with TGF-β at a concentration of 5 ng/ml and 6 hours later, with pheophorbide a at a concentration of […] or 5 μM, nintedanib at a concentration of 1 μM, and pirfenidone at a concentration of 1 mM, respectively.
After 18 hours, the culture medium was removed and the cells were washed twice by adding a PBS buffer solution, and 100 μl of RIPA buffer solution (150 mM NaCl, 1% NP-40, 0.5% Deoxycholic acid, 0.1% SDS, 50 mM Tris pH 7.5) containing a protease inhibitor was added thereto directly. 10 minutes later, the cells were recovered using a scraper and transferred to a microtube and centrifuged at about 12,000×g for 10 minutes.
The separated supernatant was obtained and transferred to a new microtube and then the protein was quantified using a bicinchoninic acid assay (BCA assay) protein quantitative kit. Each sample with the same amount of protein was subjected to electrophoresis, and then Western blotting was performed. […]

As to pheophorbide a, in assay [1], the “activity of Smad protein increased by TGF-β (luciferase)” value is on record as “decreased by pheophorbide a in a concentration-dependent manner”. Moreover, the “expression of collagen 1A, fibronectin, and smooth muscle actin proteins induced by TGF-β” value in assay [2] was “inhibited”. Besides, the “increased expression of collagen 1A induced by TGF-β” value in assay [3] (0.15-5 μM, fluorescence intensity) is reported as “largely inhibited”. In addition, the “inhibitory effect on the increased expression of collagen 1A induced by TGF-β” value in assay [3] (concentration of 2.5 μM or more) is “most excellent inhibitory effect”. Also, the “expression of the α-SMA, collagen 1A, and fibronectin induced by TGF-β” value in assay [4] is listed as “remarkably inhibited”.
